According to ChEMBL document CHEMBL1201862, “PubChem BioAssay data set” (2004):
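Cells were grown in 96-well plates and exposed to each compound for 48 hours at five concentrations; endpoints were interpolated linearly between bracketing concentrations, or set to the highest concentration if not reached. Here, GI50 denotes the concentration required for 50% inhibition of growth.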 Active and inactive are the calls of the source. Rule as the data show it: active = GI50 up to about 1.1 µM and inactive = higher.

Assays:
Experiment in all cases: NCI tumour cell line growth inhibition, 48 h
UACC-62 = tested on: UACC-62
K562 = tested on: K562
SF-268 = tested on: SF-268
A549 = tested on: A549
HOP-62 = tested on: HOP-62
OVCAR-4 = tested on: OVCAR-4
COLO 205 = tested on: COLO 205
HL-60 = tested on: HL-60
UACC-257 = tested on: UACC-257
NCI-H522 = tested on: NCI-H522
SF-295 = tested on: SF-295
IGROV-1 = tested on: IGROV-1
CCRF-CEM = tested on: CCRF-CEM
HCC 2998 = tested on: HCC 2998
SK-MEL-5 = tested on: SK-MEL-5
MCF7 = tested on: MCF7
SK-MEL-2 = tested on: SK-MEL-2
UO-31 = tested on: UO-31
SN12C = tested on: SN12C
MOLT-4 = tested on: MOLT-4

SMILES | GI50 (UACC-62) | GI50 (K562) | GI50 (SF-268) | GI50 (A549) | GI50 (HOP-62) | GI50 (OVCAR-4) | GI50 (COLO 205) | GI50 (HL-60) | GI50 (UACC-257) | GI50 (NCI-H522) | GI50 (SF-295) | GI50 (IGROV-1) | GI50 (CCRF-CEM) | GI50 (HCC 2998) | GI50 (SK-MEL-5) | GI50 (MCF7) | GI50 (SK-MEL-2) | GI50 (UO-31) | GI50 (SN12C) | GI50 (MOLT-4)
CCCCCCCCC[C@@H]1C[C@@H]2CCC3C(C(=O)OCCCCNC(=O)OCc4ccccc4)=C(C)N=C(N1)N32 (stereo partly drawn) | 3.44 µM (inactive) | 1.77 µM (inactive) | 2.85 µM (inactive) | 4.57 µM (inactive) | 3.75 µM (inactive) | 3.97 µM (inactive) | 1.62 µM (inactive) | 1.98 µM (inactive) | 3.27 µM (inactive) | 2.52 µM (inactive) | 3.44 µM (inactive) | 2.43 µM (inactive) | 2.52 µM (inactive) | 3.06 µM (inactive) | 1.59 µM (inactive) | 1.94 µM (inactive) | 1.92 µM (inactive) | 4.49 µM (inactive) | 3.13 µM (inactive) | 2.59 µM (inactive)
O=c1[nH]c(=O)n(Cc2ccccc2CO)cc1Sc1ccccc1 | 31.3 µM (inactive) | 6.78 µM (inactive) | 22.8 µM (inactive) | 18.5 µM (inactive) | 32.8 µM (inactive) | 50 µM (inactive) | 37.2 µM (inactive) | 74.8 µM (inactive) | 21.6 µM (inactive) | 1.87 µM (inactive) | 30 µM (inactive) | 12.3 µM (inactive) | 28.7 µM (inactive) | 15.7 µM (inactive) | 10.1 µM (inactive) | 22.3 µM (inactive) | 19.3 µM (inactive) | 7.4 µM (inactive) | 34.8 µM (inactive) | 54.5 µM (inactive)
C(/C=N/N=C1NCCN1)=N\N=C1NCCN1 | > 100 µM (inactive) | 17.8 µM (inactive) | > 100 µM (inactive) | > 100 µM (inactive) | > 100 µM (inactive) | > 100 µM (inactive) | > 100 µM (inactive) | 12.5 µM (inactive) | > 100 µM (inactive) | 72.3 µM (inactive) | > 100 µM (inactive) | > 100 µM (inactive) | > 100 µM (inactive) | > 100 µM (inactive) | > 100 µM (inactive) | > 100 µM (inactive) | > 100 µM (inactive) | > 100 µM (inactive) | – | > 100 µM (inactive)
CC(C)(C)COC(=O)C(C)(C)NC(=O)C(CC(=O)OCc1ccccc1)NC(=O)OCc1ccccc1 (stereo not drawn) | 19.5 µM (inactive) | 30.1 µM (inactive) | 87.1 µM (inactive) | 29.7 µM (inactive) | 75 µM (inactive) | 50.5 µM (inactive) | 21 µM (inactive) | 46.5 µM (inactive) | 25.5 µM (inactive) | 24 µM (inactive) | 34.4 µM (inactive) | 61 µM (inactive) | 25.3 µM (inactive) | 35.3 µM (inactive) | 11.1 µM (inactive) | 32.4 µM (inactive) | 49 µM (inactive) | 24 µM (inactive) | 25.6 µM (inactive) | 17.6 µM (inactive)
CCC(/C=C/C1OC(=O)C=CC1C)=C\C(C)C/C=C/C(C)=C/C(C)C(=O)C(C)C(O)C(C)C/C(C)=C/C(=O)O (stereo not drawn) | 1.56 µM (inactive) | 1.02 µM (active) | 4.07e-06 µM (active) | 0.946 µM (active) | 2.62 µM (inactive) | 1.64 µM (inactive) | 3.69 µM (inactive) | 0.855 µM (active) | 1.62 µM (inactive) | 0.955 µM (active) | 0.757 µM (active) | 4.07 µM (inactive) | 0.895 µM (active) | 6.76e-06 µM (active) | 4.88e-05 µM (active) | 1.03 µM (active) | 4.31 µM (inactive) | 2.35 µM (inactive) | 2.72 µM (inactive) | 1.06 µM (active)
Cc1nc(Nc2ccc(Cl)c(Cl)c2)sc1C(/C=C/c1ccc2c(c1)OCO2)=N/Nc1ccc([N+](=O)[O-])cc1[N+](=O)[O-] | > 61.9 µM (inactive) | > 80.4 µM (inactive) | > 100 µM (inactive) | > 100 µM (inactive) | 59.8 µM (inactive) | > 100 µM (inactive) | > 100 µM (inactive) | > 79.6 µM (inactive) | > 100 µM (inactive) | 61 µM (inactive) | 53.3 µM (inactive) | > 100 µM (inactive) | 80.9 µM (inactive) | > 78.5 µM (inactive) | > 82.8 µM (inactive) | > 100 µM (inactive) | > 100 µM (inactive) | 78.2 µM (inactive) | > 100 µM (inactive) | > 56.2 µM (inactive)
CC12OC1(C)C1C(=O)OCC1C2=O (stereo not drawn) | 99.3 µM (inactive) | 28.2 µM (inactive) | 37.8 µM (inactive) | > 100 µM (inactive) | 41 µM (inactive) | > 100 µM (inactive) | 37.4 µM (inactive) | 20.6 µM (inactive) | > 100 µM (inactive) | 14.7 µM (inactive) | 83.8 µM (inactive) | 32.4 µM (inactive) | 17.5 µM (inactive) | > 100 µM (inactive) | > 100 µM (inactive) | 61.7 µM (inactive) | 50.5 µM (inactive) | > 100 µM (inactive) | 26.7 µM (inactive) | –
